Laboratory results reported in patent publication US11213481B2, “Tumescent drug delivery” (priority 2004, dated 2022).
Values after ≈ are worked out from the molar mass of the structure shown. Values joined by “and” are separate entries in the source; they are usually repeats but may differ in a detail not shown here. Identical values can stand only once. Like-named read-outs stand apart in the source and are kept apart here.

How the values were obtained:
[1] = test system: Staphyloccus aureus (MRSA) ATCC 33592; test: Minimum Bactericidal Concentration (MBC); assay type: cell-based, Staphylococcus aureus
Source text: Determinations of MBC followed the method described in “Report on the Working Party on Antibiotic Sensitivity Testing of the British Society of Antimicrobial Chemotherapy: A Guide to Sensitivity Testing.”

[2] = cited from earlier work
[3] = test system: Staphyloccus aureus (MRSA) ATCC 33592; test: Minimum Inhibitory Concentration (MIC); settings: Staphylococcus aureus
Protocol: Following inoculation, survival of test microorganisms was determined.

[4] = test system: platelet aggregation induced by ADP, epinephrine and collagen; settings: cited from earlier work
S. aureus = settings: effect increases with greater duration of exposure; cited from earlier work
platelet function = test: Bleeding time and bleeding area before and after tumescent lidocaine exposure (preliminary experiment); assay type: in vivo, human
Protocol: The skin of the left and right thigh of a subject is cleaned and allowed to dry. […] Simultaneous 4 mm deep puncture wounds are made to the same area of the left and right thighs with disposable lancets. The puncture sites are blotted with filter paper every 30 seconds, until bleeding stops and the bleeding time for each thigh is recorded. The bleeding times of the left and right thigh are compared to determine if administration of TLAnti increases bleeding time. Normal bleeding time measured by the Duke method is 1 to 3 minutes.
In a preliminary experiment, bleeding time and bleeding area were measured in a patient before and after tumescent lidocaine exposure. […] In contrast, there was a 40% increase in Average Bleeding Area (BA). Bleeding Area (BA) was a more sensitive and a more specific test for platelet function compared to Bleeding Time (BT). […] In otherwords, TAD may reduce the risk of both post-operative surgical site infection and post-operative thromboembolism.

[5] = routine local anesthesia with lidocaine; cited from earlier work
clinical = settings: human, in vivo
Protocol: A clinical pharmacologic investigation was conducted to compare the pharmacokinetic advantages of two modes of systemic antibiotic delivery, Tumescent antibiotic delivery (TAD), which involves the delivery of a relatively large volume of an antibiotic-containing solution to the subcutaneous compartment, and intravenous antibiotic delivery (IVAD), which results in direct delivery of antibiotics to the blood stream, for prophylaxis of SSI.
With Institutional Review Board (IRB) approval, the absorption pharmacokinetics of tumescent antibiotic delivery (TAD) and intravenous antibiotic delivery (IVAD) were tested in human subjects and the antibiotic delivery modes were evaluated with respect to the area under the curve (AUC) of antibiotic concentration as a function of time and peak antibiotic concentration (Cmax) in serum and TISF. 4 female subjects participated in at least one study, one subject volunteered for 2 separate studies. 5 studies were conducted: 3 involved TAD to the abdomen, 1 involved TAD to the hips and outer thighs and 1 involved TAD to the breasts. […] Each of the 5 studies consisted of 2 to 3 pharmacokinetic procedures, for a total of 14 procedures. Any procedures conducted on an individual subject were separated by at least one week. In 13 procedures only IVAD or TAD, was used. In one procedure both IVAD and TAD were used concurrently, with IVAD started and finished within five minutes after completing TAD.
TAD was conducted as described herein. Following TAD, sequential 10 ml samples of tumescent adipose tissue were obtained using a hand-held syringe-liposuction technique. Sampling began immediately after completing the TAD infiltration (T0), and continuing until the patients reported significant discomfort. Liposuction aspirate samples were obtained at 0, 1, 2, 3, 4, 6, and 8 hours in all procedures; in 4 TAD procedures, sampling continued until 10 hours. Sequential serum samples for measurement of antibiotic concentration in serum after TAD ([Serum]TAD) were obtained simultaneously.
For IVAD, the antibiotic was delivered into an antecubital vein. Following IVAD, serum samples were taken from the contralateral arm via an indwelling venous catheter beginning immediately after completion of the antibiotic delivery (T0).
The samples of liposuction aspirate were centrifuged to obtain infranatant TISF, which comprises minimally blood-tinged tissue-free residual tumescent solution.
AUC (Area Under the Curve) of drug concentration as a function of time, a metric for measuring the cumulative exposure to an individual drug within a specified tissue, was estimated for time T0 to time Tn using the trapezoid rule: […]

[6] = cited from earlier work; remark: listed apart in the source
[7] = cited from earlier work; remark: listed apart in the source
[8] = 1 gm at the end of the surgery; 405 abdominal surgery patients; cited from earlier work
[9] = after vs before tumescent lidocaine exposure
[10] = post-op tumescent lidocaine exposure, Pt# 1, tests T3, T4

Structure (SMILES): Cc1nnc(SCC2=C(C(=O)O)N3C(=O)[C@@H](NC(=O)Cn4cnnn4)[C@H]3SC2)s1 [Cefazolin]
- MRSA growth (MBC test) ([1]; Day 1, Cefazolin 62.5 mg/L, MRSA inoculum 4.7 × 10^5 CFU/ml): +
- MRSA growth (MBC test) ([1]; Day 1, Cefazolin 125 mg/L, MRSA inoculum 4.7 × 10^5 CFU/ml): +
- MRSA growth (MBC test) ([1]; Day 1, Cefazolin 250 mg/L, MRSA inoculum 4.7 × 10^5 CFU/ml): 0
- MRSA growth (MBC test) ([1]; Day 2, Cefazolin 62.5 mg/L, MRSA inoculum 4.4 × 10^5 CFU/ml): +
- MRSA growth (MBC test) ([1]; Day 2, Cefazolin 125 mg/L, MRSA inoculum 4.4 × 10^5 CFU/ml): +
- MRSA growth (MBC test) ([1]; Day 2, Cefazolin 250 mg/L, MRSA inoculum 4.4 × 10^5 CFU/ml): 0

Structure (SMILES): CCN(CC)CC(=O)Nc1c(C)cccc1C [Lidocaine]
- MRSA growth (MBC test) ([1]; Day 1, Lidocaine 1,000 mg/L, MRSA inoculum 4.7 × 10^5 CFU/ml): +
- MRSA growth (MBC test) ([1]; Day 2, Lidocaine 1,000 mg/L, MRSA inoculum 4.4 × 10^5 CFU/ml): +
- MRSA growth (MBC test) ([1]; Day 2, Lidocaine 5,000 mg/L, MRSA inoculum 4.4 × 10^5 CFU/ml): +
- MRSA growth (MBC test) ([1]; Day 2, Lidocaine 10,000 mg/L, MRSA inoculum 4.4 × 10^5 CFU/ml): 0
- dosage limitation approved by the FDA for infiltration local anesthesia ([2]; commercial lidocaine (1%=10 gm/L) with epinephrine (1:100,000=10 mg/L)): 7 mg/kg
- maximum safe mg/kg dosage (estimated) ([2]; tumescent lidocaine, TLA without liposuction, adults): ~30 mg/kg
- MIC [3]: ~5000 µg/mL (≈ 21.3 mM)
- lidocaine concentration that consistently inhibits in-vitro platelet aggregation ([4]; aggregation induced by ADP, epinephrine and collagen): ≥ 0.5 mg/mL
- effect on platelet aggregation ([4]; at safe systemic concentrations (e.g. ≤6 micrograms/ml)): no effect
- platelet aggregation induced by ADP [4]: inhibit
- bactericidal activity in vitro (S. aureus): bactericidal
- change in Average Bleeding Time (BT) (platelet function; [9]): essentially no change
- increase in Average Bleeding Area (BA) (platelet function; [9]): 40%
- Lidocaine BA (Average Bleeding Area) (platelet function; post-op tumescent lidocaine exposure, Control BA = 541): BA = 759
- Lidocaine BT (Average Bleeding Time) (platelet function; post-op tumescent lidocaine exposure, Control BT = 6): BT = 5.75
- Bleeding Area BA (platelet function; [10]): 791.81 and 726.03
- Bleeding Time BT × 2 (platelet function; [10]): 10 and 13
- duration of local anesthesia [5]: ~2 h

Structure (SMILES): Cc1ncc([N+](=O)[O-])n1CCO [Metronidazole]
- interval in which serum concentration of metronidazole exceeded 4 μg/ml (clinical; female): 0 to 12 h
- interval in which serum concentration of metronidazole exceeds 4 μg/ml (clinical; female): 0 to 12 h
- AUC (clinical; female, 500 mg, AUC[Serum]IVAD, metronidazole, Study 4, IVAD dose 500 mg): 122 µg·h/mL
- AUC (clinical; female, 500 mg, AUC[Serum]TAD): 67 µg·h/mL
- AUC (clinical; female, 500 mg, AUC[TISF]TAD): 2600 µg·h/mL
- AUC (clinical; female, 600 mg, AUC[Serum]IVAD, metronidazole, Study 5, IVAD dose 600 mg): 127 µg·h/mL
- AUC (clinical; female, 600 mg, AUC[Serum]TAD): 81 µg·h/mL
- AUC (clinical; female, 600 mg, AUC[TISF]TAD, metronidazole, Study 5 (Abdomen) TAD1: 600 mg, 172 mg/L in TAD): 1030 µg·h/mL
- ER3 = ER1/ER2 = AUC[TISF]TAD/AUC[Serum]TAD (clinical; 500 mg): 38.8
- ER3 = ER1/ER2 = AUC[TISF]TAD/AUC[Serum]TAD (clinical; 600 mg): 12.7

Structure (SMILES): CCOC(=O)c1ccc(N)cc1 [benzocaine]
- platelet aggregation induced by ADP [4]: inhibit

Structure (SMILES): CCCCN1CCCCC1C(=O)Nc1c(C)cccc1C (stereo not drawn) [bupivacaine]
- platelet aggregation induced by ADP [4]: inhibit

Structure (SMILES): CO[C@@]1(NC(=O)Cc2cccs2)C(=O)N2C(C(=O)O)=C(COC(N)=O)CS[C@@H]21 [cefoxitin]
- protein binding [6]: approximately 72%
- subjects with penetration P=AUC[ISF]IVAD/AUC[SERUM]IVAD less than 0.1 ([7]; normal controls): 3/10
- Penetration PR ([7]; normal weight volunteers, microdialysis): 0.37±0.26
- degree of antibiotic penetration into ISF relative to normal weight subjects ([7]; obese patients): 22%
- subjects with penetration P=AUC[ISF]IVAD/AUC[SERUM]IVAD less than 0.1 ([7]; obese subjects): 8/10

Structure (SMILES): O=C(Cc1cccs1)N[C@@H]1C(=O)N2C(C(=O)[O-])=C(C[n+]3ccccc3)CS[C@H]12 [cephaloridine]
- incidence of wound infection, intravenous vs intra incisional [8]: no significant difference
